Source: paper PMC10303384, “The Effect of Terbinafine and Its Ionic Salts on Certain Fungal Plant Pathogens” (Molecules, 2023)
Where two headings read alike, the source gives them in different places.

Experiments:
[1] = test system: Pyricularia oryzae (P. oryzae); test: microbe, parasite or virus in culture; type: cell-based; details: for EC50: P. oryzae
[2] = test system: Valsa malicola (V. mali); test: In vitro fungicidal activity, mycelial (hyphae) growth inhibition on PDA; type: cell-based
[3] = test system: Alternaria solani (A. solani); test: as above; type: cell-based
[4] = test system: Botrytis cinerea (B. cinerea); test: as above; type: cell-based
[5] = test system: Fusarium graminearum (F. graminearum); test: microbe, parasite or virus in culture; type: cell-based
[6] = Solubility classification in representative solvents (Vogel protocol); type: physicochemical; details: thermodynamic from solid, 25 °C, test amount 0.1 g
Method: This investigation details how to determine the solubility of terbinafine and its salts, guided by the experimental protocol in Vogel’s Textbook of Practical Organic Chemistry. Based on the Snyder polarity index values of the representative solvents, each solvent was tested for its ability to dissolve the target analytes. The solubility data was classified into three categories based on the observed extent of dissolution. […] The experimental procedures were performed at 25 °C and under ambient pressure.

[7] = test system: Rhizoctonia solani (R. solani); test: microbe, parasite or virus in culture; type: cell-based
[8] = test system: Pythium aphanidermatum (P. aphanidermatum); test: In vitro fungicidal activity, mycelial (hyphae) growth inhibition on PDA; type: cell-based
[9] = Solubility of saturated solutions by HPLC at 25 °C; type: physicochemical
From the text: The filtrate was then passed through a 0.22 μm nylon membrane filter and subjected to HPLC analysis. Based on Wang’s report about the chromatographic parameters, modifications to the mobile phase ratio were made. The replicability of the results was ensured by performing each measurement in triplicate.

[10] = test system: Phomopsis capsici (P. capsica); test: In vitro fungicidal activity, mycelial (hyphae) growth inhibition on PDA; type: cell-based
[11] = Surface tension of saturated aqueous solutions, Du Noüy ring method; details: 25 °C
Method: This method involved adjusting the stage positioning of the solvent container such that a platinum ring could be immersed below the liquid interface or pulled through the meniscus. […] The maximum force was recorded as the surface tension of the solvent. To ensure accuracy, the platinum ring was thoroughly cleaned between each measurement through rinsing with double-distilled water and wiping it dry. The surface tension determination was performed in quadruplicate.

[12] = Critical micelle concentration by electrical conductivity; details: 25 °C
Method: The critical micelle concentrations (CMCs) of the TISs were measured using electrical conductivity at 25 °C, as shown in Figure S16.
The critical micelle concentrations (CMCs) of all the TISs were determined using an electrical conductivity meter (Leica Desktop Conductivity Meter DDSJ-308F, Shanghai Oustor Industrial Co., Ltd. Shanghai, China).

[13] = 50 mg/L, mean ± SD of three replicates

Q: For `CN(C/C=C/C#CC(C)(C)C)Cc1cccc2ccccc12.O=C(O)/C=C/C(=O)O` [TIS 4, (E)-N,6,6-trimethyl-N-(naphthalen-1-ylmethyl)hept-2-en-4-yn-1-aminium (E)-3-carboxyacrylate], which “Inhibition Rate at 50 mg/L (%) P. o” value [1, 13] is on record?
A: Its value is 98.7 ± 0.54%.

Q: What about the EC50 ([1]; Pyricularia oryzae) of the same compound?
A: Its EC50 is 0.75 µg/mL.

Q: What about the EC50 ([1]; read-out: EC50 (μmol/L)) of the same compound?
A: The EC50 was 1.84 µmol/L.

Q: And the EC50 [2]?
A: Its EC50 is 1.88 µg/mL.

Q: And the “Inhibition Rate at 50 mg/L (%) V. m” value ([2]; 50 mg/L)?
A: The value was 100 ± 0%.

Q: What about the EC50 ([2]; read-out: EC50 (μmol/L)) of the same compound?
A: Its EC50 is 4.6 µmol/L.

Q: And the “Inhibition Rate at 50 mg/L (%) A. s” value ([3]; 50 mg/L)?
A: The value was 100 ± 0%.

Q: And the EC50 ([3]; Alternaria solani)?
A: Its EC50 is 0.11 µg/mL.

Q: What about the EC50 ([3]; read-out: EC50 (μmol/L)) of the same compound?
A: The EC50 was 0.28 µmol/L.

Q: What about the “Inhibition Rate at 50 mg/L (%) B. c” value ([4]; 50 mg/L) of the same compound?
A: The value was 100 ± 0%.

Q: What about the EC50 ([4]; Botrytis cinerea) of the same compound?
A: Its EC50 is 0.15 µg/mL.

Q: What about the EC50 ([4]; read-out: EC50 (μmol/L)) of the same compound?
A: The EC50 was 0.36 µmol/L.

Q: And the “Inhibition Rate at 50 mg/L (%) F. g” value [5, 13]?
A: The value was 100 ± 0%.

Q: What about the “higher bioactivity compared to terbinafine” value ([5]; F. graminearum, from EC50) of the same compound?
A: The value was 16%.

Q: And the EC50 ([5]; Fusarium graminearum, F. graminearum)?
A: Its EC50 is 0.09 µg/mL.

Q: And the EC50 ([5]; read-out: EC50 (μmol/L), F. graminearum)?
A: The EC50 was 0.21 µmol/L.

Q: And the solubility ([6]; DMSO, organic solvent or mixture, Snyder polarity index 6.5, read-out: Solubility in DMSO)?
A: The solubility was > 100 mg/mL.

Q: What about the solubility ([6]; acetone, organic solvent or mixture, Snyder polarity index 5.1, read-out: Solubility in Acetone) of the same compound?
A: The solubility was < 33.3 mg/mL.

Q: And the solubility ([6]; acetonitrile, organic solvent or mixture, Snyder polarity index 6.2, read-out: Solubility in Acetonitrile)?
A: Its solubility is < 33.3 mg/mL.

Q: And the solubility ([6]; chloroform, organic solvent or mixture, Snyder polarity index 4.1, read-out: Solubility in Chloroform)?
A: Its solubility is < 33.3 mg/mL.

Q: What about the solubility ([6]; ethyl acetate, organic solvent or mixture, Snyder polarity index 4.3, read-out: Solubility in Ethyl acetate) of the same compound?
A: Its solubility is < 33.3 mg/mL.

Q: What about the solubility ([6]; isopropanol, organic solvent or mixture, read-out: Solubility in Isopropanol) of the same compound?
A: The solubility was < 33.3 mg/mL.

Q: What about the solubility ([6]; methanol, organic solvent or mixture, Snyder polarity index 6.6, read-out: Solubility in Methanol) of the same compound?
A: Its solubility is < 33.3 mg/mL.

Q: And the solubility ([6]; n-hexane, organic solvent or mixture, Snyder polarity index 0.0, read-out: Solubility in n-Hexane)?
A: Its solubility is < 33.3 mg/mL.

Q: What about the solubility ([6]; toluene, organic solvent or mixture, Snyder polarity index 2.3, read-out: Solubility in Toluene) of the same compound?
A: Its solubility is < 33.3 mg/mL.

Q: What about the solubility ([6]; water, Snyder polarity index 9.0, read-out: Solubility in Water) of the same compound?
A: Its solubility is < 33.3 mg/mL.

Q: And the “Inhibition Rate at 50 mg/L (%) R. s” value ([7]; 50 mg/L)?
A: The value was 85.82 ± 1.51%.

Q: What about the EC50 ([7]; Rhizoctonia solani) of the same compound?
A: Its EC50 is 2.3 µg/mL.

Q: What about the EC50 ([7]; read-out: EC50 (μmol/L)) of the same compound?
A: The EC50 was 5.65 µmol/L.

Q: And the “Inhibition Rate at 50 mg/L (%) P. a” value [8]?
A: Its value is 65.23 ± 0.47%.

Q: And the solubility at 15 min ([9]; acetone, organic solvent or mixture, thermodynamic from solid, Table S1, read-out: Solubility, Acetone)?
A: Its solubility at 15 min is 2070 µM.

Q: And the solubility at 15 min ([9]; acetonitrile, organic solvent or mixture, thermodynamic from solid, Table S1, read-out: Solubility, Acetonitrile)?
A: Its solubility at 15 min is 301 µM.

Q: And the solubility at 15 min ([9]; chloroform, organic solvent or mixture, thermodynamic from solid, Table S1, read-out: Solubility, Chloroform)?
A: The solubility at 15 min was 321 µM.

Q: What about the solubility at 15 min ([9]; ethyl acetate, organic solvent or mixture, thermodynamic from solid, Table S1, read-out: Solubility, Ethyl acetate) of the same compound?
A: The solubility at 15 min was 880 µM.

Q: What about the solubility at 15 min ([9]; isopropanol, organic solvent or mixture, thermodynamic from solid, Table S1, read-out: Solubility, Isopropanol) of the same compound?
A: Its solubility at 15 min is 1920 µM.

Q: What about the solubility at 15 min ([9]; methanol, organic solvent or mixture, thermodynamic from solid, Table S1, read-out: Solubility, Methanol) of the same compound?
A: The solubility at 15 min was 7750 µM.

Q: And the solubility at 15 min ([9]; n-hexane, organic solvent or mixture, thermodynamic from solid, Table S1, read-out: Solubility, n-Hexane)?
A: Its solubility at 15 min is 70.9 µM.

Q: What about the solubility at 15 min ([9]; toluene, organic solvent or mixture, thermodynamic from solid, Table S1, read-out: Solubility, Toluene) of the same compound?
A: Its solubility at 15 min is 0.261 µM.

Q: And the solubility at 15 min ([9]; water, read-out: water solubility)?
A: The solubility at 15 min was 1920 µM.

Q: What about the solubility at 15 min ([9]; water, thermodynamic from solid, Table S1, read-out: Solubility, Water) of the same compound?
A: Its solubility at 15 min is 1920 µM.

Q: What about the “Inhibition Rate at 50 mg/L (%) P. c” value [10] of the same compound?
A: The value was 47.64 ± 1.58%.

Q: And the “surface tension of the saturated aqueous solution” value [11]?
A: The value was 55.68 mN·m^−1.

Q: And the “critical micelle concentration (CMC)” value [12]?
A: Its value is 0.31 mmol/L.
